From US6866995B1, “Method to enable assessment of growth and death of micro-organisms” (priority 1999, dated 2005) come the findings set out here.

Assay [1] relates to E. coli with plasmid pGFP+luc*. The conditions noted are these: for death: incubation 5 min, 30° C., FIGS. 4 and 5 (plating and live/dead staining). Here is the method: (§1) One colony from a pure culture plate was inoculated in 5 ml of LB-medium with ampicillin (100 μg/ml) and grown at +37° C. in a shaker, 250 rpm, for about three hours. After that, the number of cells per milliliter was determined with flow cytometry by using fluorescent spherical latex particles as a reference. One million cells were then removed to an erlenmeyer with 50 ml of LB medium and ampicillin. The culture was grown over night in a shaker, 190 rpm, at room temperature to prevent the culture from growing into the stationary phase during the night. In the morning, the culture was transferred to and grown in a shaker, 330 rpm, until the stationary phase was reached or used after growth at +30° C. for about 1 h to study the influence of ethanol or serum complement as described below.
Ethanol (Aa, Primalco Oy) was diluted into pure water to obtain concentrations of […], 25, 10, 5, 1 and 0% of ethanol when 500 μl of said dilution was added to 500 μl of said culture in an eppendorf tube. The mixture was vortexed and incubated for 5 minutes before measuring fluorescence and luminescence. Live cells were again counted by plating and also by live/dead staining. In the live/dead protocol used the stain cyto 9 stains all cells whereas propidium iodide stains only the dead cells. After staining, cells are passed through a flow cytometer, with which dead and live cells can be differentiated and their proportion determined. (Virta et al. (1998) Appl. Environ. Microbiol. 64: 515-519.)
The influence of serum complement on the said recombinant E. coli strain was studied using an incubation time of 90 min as described for a different recombinant E. coli strain used in Virta et al. (1998) Appl. Environ. Microbiol. 64: 515-519.
Samples for plating were diluted 10^2 to 10^7 fold with 150 mM NaCl and plated onto L agar plates (L broth containing 1.6% agar). Colonies were counted after overnight incubation at 37° C.

The test system of assay [2] is E. coli with plasmid pGFP+luc*. Type of assay: cell-based, E. coli strain MC1061. The conditions noted are these: 5 min. As for the experimental part: Environ. Microbiol. 64: 515-519.
The measurements were done with a combined fluoro- and luminometer, Fluoroscan Ascent FL, provided by Labsystems Ltd. (Helsinki, Finland). Cell growth was simultaneously followed with a flow cytometer.
For the measurements, 100 μl of bacterial culture was pipetted into the microtiter plate wells. Fluorescence was measured using 485 nm for excitation and 510 nm for emission. Measuring time was 20 ms. After the fluorescence measurement 100 μl of luciferin in 0.1 M citric acid-sodium citrate buffer (pH 5.0) was dispensed into the wells and the plate was shaken for two minutes (shaking diameter 1 mm, 1 020 rpm), after which luminescence was recorded with a measuring time of 1000 ms.

Assay [3] has as its system E. coli with plasmid pGFP+luc*. The conditions noted are these: with increased ethanol concentration, 5 min, FIG. 5. As for the experimental part:
as §1
Ethanol (Aa, Primalco Oy) was diluted into pure water to obtain concentrations of 50, 45, 25, 10, 5, 1 and 0% of ethanol when 500 μl of said dilution was added to 500 μl of said culture in an eppendorf tube. The mixture was vortexed and incubated for 5 minutes before measuring fluorescence and luminescence. Live cells were again counted by plating and also by live/dead staining. […] After staining, cells are passed through a flow cytometer, with which dead and live cells can be differentiated and their proportion determined. […]

The structures appear in SMILES notation. Read-outs that look alike come from different tables or passages of the source.

For `CCO` [ethanol, Ethanol], the death entry in assay [1] (ethanol concentrations above 10%) is “very pronounced significance”; in assay [1] (ethanol concentrations below 5%) it was “more or less unsignificant”. The “live cell count according to plate count” value in assay [1] (with increased ethanol concentration, 5 min, FIG. 4) is given as “dramatically decreasing”. Further, the fluorescence result in assay [2] (whatever the ethanol concentration (0-50%), FIG. 2) was “essentially constant”. Moreover, the luminescence entry in assay [2] (with increased ethanol concentration, FIG. 3) is “dropped dramatically”. Moreover, in assay [3], the “percentage of live cells according to the live/dead staining” value is on record as “dramatically decreasing”.
